Assays:
[1] = Solubilities of selected hydrocarbon solvents in the ether hydride (precision cleaning); type: physicochemical
Description: A sample of this compound was evaluated for use in precision cleaning applications by measuring the solubilities of selected hydrocarbon solvents in the sample.

[2] = Spot-free drying: water displacement from glass and stainless steel coupons; conditions: 0.2% by weight C4F9OC2F4OCF2CONHC2H4OH dissolved in the ether, 45° C., ultrasonic agitation
Description: A sample of the compound was also evaluated for use in spot-free drying applications such as taught in U.S. Pat. No. 5,125,978 (Flynn et al.). A water displacement composition was prepared by dissolving 0.2% by weight of C4F9OC2F4OCF2CONHC2H4OH in C4F9—O—C2F4H. The solution was heated to 45° C. in an ultrasonic bath. Using the procedure described in U.S. Pat. No. 5,125,978, test coupons of glass and stainless steel were wetted with water and subsequently immersed into this solution with ultrasonic agitation. All water was displaced within 60 seconds.

[3] = Rinse agent in co-solvent cleaning of oil-contaminated aluminum coupon; conditions: 50° C., about 60 seconds methyl decanoate then about 60 seconds rinse agent, aluminum coupon with light hydrocarbon oil
Description: A sample of this compound was also evaluated for use as a rinse agent in co-solvent cleaning applications. (Such cleaning applications are taught, for example, in International Patent Publication No. WO 92/22678 (Petroferm Inc.). Organic esters such as methyl decanoate have found utility as solvating agents in two-phase cleaning applications using perfluorohexane as the carrier liquid and rinse agent.) Methyl decanoate and C4F9OC2F4H were placed in separate containers and heated to 50° C. in an ultrasonic bath. A 50 mm×25 mm×1.5 mm aluminum coupon was contaminated with 0.0831 g of a light hydrocarbon oil. The contaminated coupon was first immersed in the methyl decanoate for about 60 seconds and then immersed in the C4F9OC2F4H for about 60 seconds. The C4F9OC2F4H rinsed 100 percent (as determined by weight difference) of the oil and the methyl decanoate from the coupon.

[4] = Fire extinguishing agent evaluation, NFPA 2001 standard, modified cup burner; conditions: cup burner modified to handle liquid compounds
Description: Omega-hydrofluoroalkyl ether compounds of this invention were evaluated as fire extinguishing agents using the National Fire Protection Association 2001 Fire Protection Standard, with a cup burner modified to handle liquid compounds. The results, shown below in Table D, indicate that the compounds could be effective agents for fire extinguishing, explosion suppression, and as flammable atmosphere inerting agents.

[5] = Comparative boiling points; type: physicochemical
From the text: The unexpectedly low boiling points of compounds of the present invention render the compounds useful in processes involving temperature-sensitive substrates such as plastics. (For example, in vapor-phase cleaning, a substrate is rinsed in the condensing vapor of a boiling fluid, and in condensation heating, a substrate is heated by immersion in a boiling fluid.) In such applications, a lower-boiling fluid is preferred so as to avoid damage to the substrate. While it is known that boiling points can be reduced by selection of a compound having fewer carbon atoms, this may result in a boiling point reduction of 25° C. or more, in addition to adversely affecting other properties such as solvency.

Structure (SMILES): FC(F)C(F)(F)OC(F)(F)C(F)(F)C(F)(F)C(F)(F)F [C4F9OC2F4H, C4F9—O—C2F4H]
- Solubility of chloroform in the ether hydride ([1]; Chloroform): 45 % by weight
- Solubility of ethylene glycol in the ether hydride ([1]; Ethylene glycol): less than 15 % by weight
- Solubility of hydrocarbon solvent in the ether hydride ([1]; hexane, heptane, toluene, acetone, 2-butanone, 4-methyl-2-pentanone, ethyl acetate, methanol, ethanol, isopropanol, dimethyl formamide, trans-1,2-dichloroethylene, isopropyl ether): up to 50 % by weight
- Solubility of light hydrocarbon oil in the ether hydride ([1]; light hydrocarbon oil): less than 0.05 % by weight
- Solubility of o-xylene in the ether hydride ([1]; o-Xylene): 19 % by weight
- Time for all water to be displaced [2]: ≤ 60 s
- Oil and methyl decanoate rinsed from the coupon (by weight difference) [3]: 100%
- Extinguishment concentration [4]: 5.6 vol. %

Structure (SMILES): FC(F)C(F)(F)C(F)(F)C(F)(F)C(F)(F)OC(F)(F)C(F)(F)C(F)(F)C(F)(F)C(F)(F)F [C5F11OC5F10H, C5F11—O—(CF2)5H]
- Boiling Point [5]: 150 °C

Structure (SMILES): FC(F)C(F)(F)C(F)(F)C(F)(F)OC(F)(F)C(F)(F)C(F)(F)C(F)(F)C(F)(F)C(F)(F)F [C6F13OC4F8H, C6F13—O—C4F8—H]
- Boiling Point [5]: 149 °C

Structure (SMILES): FC(F)C(F)(F)OC(F)(F)C(F)(F)C(F)(F)C(F)(F)C(F)(F)C(F)(F)C(F)(F)F [C7F15OC2F4H, C7F15—O—C2F4H]
- Boiling Point [5]: 131 °C

Structure (SMILES): FC(F)C(F)(F)C(F)(F)C(F)(F)C(F)(F)C(F)(F)C(F)(F)C(F)(F)C(F)(F)F [C8F17CF2H, reference compound]
- Boiling Point [5]: 136 °C

Structure (SMILES): FC(F)C(F)(F)OC(F)(F)C(F)(F)C(F)(F)C(F)(F)C(F)(F)C(F)(F)C(F)(F)C(F)(F)F [C8F17OC2F4H, C8F17—O—C2F4H]
- Boiling Point [5]: 148 °C

Structure (SMILES): FC(F)OC(F)(F)C(F)(F)C(F)(F)C(F)(F)C(F)(F)C(F)(F)C(F)(F)C(F)(F)F [C8F17OCF2H, C8F17—O—CF2H]
- Boiling Point [5]: 139 °C

Structure (SMILES): FC(F)C(F)(F)C(F)(F)C(F)(F)C(F)(F)C(F)(F)C(F)(F)C(F)(F)C(F)(F)C(F)(F)F [C9F19CF2H, reference compound]
- Boiling Point [5]: 154 °C

Structure (SMILES): FC(F)OC(F)(F)C(F)(F)C(F)(F)C(F)(F)C(F)(F)C(F)(F)C(F)(F)C(F)(F)C(F)(F)F [C9F19OCF2H]
- Boiling Point [5]: 155 °C

Structure (SMILES): FC(F)C(F)(F)C(F)(F)OC(F)(F)C(F)(F)C(F)F [HC3F6OC3F6H]
- Extinguishment concentration [4]: 5.7 vol. %

Structure (SMILES): FC(F)(F)C(F)(F)C(F)(F)C(F)(F)C(F)(F)C(F)(F)F [perfluorohexane, reference compound]
- Oil and methyl decanoate rinsed from the coupon (by weight difference) [3]: 98.5%

— US6863211B2, “Omega-hydrofluoroalkyl ethers, precursor carboxylic acids and derivatives thereof, and their preparation and application” (3M Innovative Properties Company, priority 1994, dated 2005)
